Experimental data: the kinase profiling compilation of Christmann-Franck et al. (2016)

Key:
Assay in all cases: KINOMEscan competition binding
Details in all cases: compound 10.0 µM
[1] = biological target: PRKD2 (human) (UniProt Q9BZL6)
[2] = biological target: RIPK4 (human) (UniProt P57078)
[3] = biological target: RPS6KA4 KD2 (human) (UniProt O75676)
[4] = biological target: EPHA4 (human) (UniProt P54764)
[5] = biological target: TXK (human) (UniProt P42681)
[6] = biological target: SLK (human) (UniProt Q9H2G2)
[7] = biological target: CAMK2D (human) (UniProt Q13557)
[8] = biological target: SRPK2 (human) (UniProt P78362)
[9] = biological target: EPHB4 (human) (UniProt P54760)
[10] = biological target: RPS6KA2 KD2 (human) (UniProt Q15349)
[11] = biological target: MAP2K1 (human) (UniProt Q02750)
[12] = biological target: PAK4 (human) (UniProt O96013)
[13] = biological target: MAP3K7 (human) (UniProt O43318)
[14] = biological target: ROS1 (human) (UniProt P08922)
[15] = biological target: AXL (human) (UniProt P30530)
[16] = biological target: MAPKAPK2 (human) (UniProt P49137)
[17] = biological target: CIT (human) (UniProt O14578)
[18] = biological target: PKN1 (human) (UniProt Q16512)
[19] = biological target: CLK2 (human) (UniProt P49760)
[20] = biological target: STK10 (human) (UniProt O94804)
[21] = biological target: CAMK2G (human) (UniProt Q13555)
[22] = biological target: CDK14 (human) (UniProt O94921)
[23] = test system: KIT (human), P10721 [V559D]
[24] = test system: EGFR (human), P00533 [L861Q]
[25] = test system: RET (human), P07949 [M918T]
[26] = biological target: ANKK1 (human) (UniProt Q8NFD2)
[27] = test system: PIK3CA (human), P42336 [E545K]
[28] = biological target: MUSK (human) (UniProt O15146)
[29] = biological target: PRKCH (human) (UniProt P24723)
[30] = biological target: CSNK2A2 (human) (UniProt P19784)
[31] = biological target: LIMK1 (human) (UniProt P53667)
[32] = biological target: IKBKE (human) (UniProt Q14164)
[33] = biological target: MAPK7 (human) (UniProt Q13164)
[34] = biological target: MET (human) (UniProt P08581)
[35] = biological target: ADCK3 (human) (UniProt Q8NI60)
[36] = biological target: ROCK2 (human) (UniProt O75116)
[37] = biological target: CAMK4 (human) (UniProt Q16566)
[38] = biological target: MAP3K12 (human) (UniProt Q12852)
[39] = biological target: LATS2 (human) (UniProt Q9NRM7)
[40] = biological target: MAP3K11 (human) (UniProt Q16584)
[41] = biological target: LCK (human) (UniProt P06239)
[42] = biological target: MAP3K5 (human) (UniProt Q99683)

Chain of LCK (human) (P06239 whole entry, looked up): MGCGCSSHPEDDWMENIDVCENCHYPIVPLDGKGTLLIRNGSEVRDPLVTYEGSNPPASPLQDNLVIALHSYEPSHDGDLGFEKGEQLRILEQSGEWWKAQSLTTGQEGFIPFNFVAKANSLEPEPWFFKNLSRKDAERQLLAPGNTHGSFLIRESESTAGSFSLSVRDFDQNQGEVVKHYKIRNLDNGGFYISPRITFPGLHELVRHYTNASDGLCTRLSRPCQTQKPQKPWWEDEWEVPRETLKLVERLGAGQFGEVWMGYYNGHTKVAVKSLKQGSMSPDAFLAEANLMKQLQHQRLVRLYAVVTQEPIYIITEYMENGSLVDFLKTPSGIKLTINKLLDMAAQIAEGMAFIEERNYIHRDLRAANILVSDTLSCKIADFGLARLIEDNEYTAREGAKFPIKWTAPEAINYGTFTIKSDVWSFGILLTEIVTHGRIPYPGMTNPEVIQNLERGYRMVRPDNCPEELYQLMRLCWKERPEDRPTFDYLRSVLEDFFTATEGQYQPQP
Chain of ANKK1 (human) (Q8NFD2 whole entry, looked up): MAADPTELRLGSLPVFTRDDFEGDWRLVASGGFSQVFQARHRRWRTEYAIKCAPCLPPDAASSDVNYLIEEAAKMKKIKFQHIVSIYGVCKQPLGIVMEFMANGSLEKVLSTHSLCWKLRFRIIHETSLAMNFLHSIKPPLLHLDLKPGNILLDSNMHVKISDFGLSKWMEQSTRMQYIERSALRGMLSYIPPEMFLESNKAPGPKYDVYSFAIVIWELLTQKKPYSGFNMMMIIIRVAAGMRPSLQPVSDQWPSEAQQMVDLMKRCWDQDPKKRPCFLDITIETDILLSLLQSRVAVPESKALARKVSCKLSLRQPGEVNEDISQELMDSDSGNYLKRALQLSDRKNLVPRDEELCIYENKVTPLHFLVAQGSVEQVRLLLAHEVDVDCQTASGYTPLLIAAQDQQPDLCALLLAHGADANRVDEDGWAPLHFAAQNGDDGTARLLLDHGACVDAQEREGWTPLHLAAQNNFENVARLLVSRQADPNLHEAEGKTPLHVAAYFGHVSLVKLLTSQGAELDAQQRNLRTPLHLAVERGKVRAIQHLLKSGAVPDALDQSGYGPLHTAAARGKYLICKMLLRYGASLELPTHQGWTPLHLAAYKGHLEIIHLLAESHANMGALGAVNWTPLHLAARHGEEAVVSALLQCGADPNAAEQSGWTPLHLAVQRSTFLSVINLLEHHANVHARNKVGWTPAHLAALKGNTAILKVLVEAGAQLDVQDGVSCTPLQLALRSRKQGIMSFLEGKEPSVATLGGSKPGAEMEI
Chain of RET (human), P07949 [M918T] (P07949 whole entry M918T, looked up): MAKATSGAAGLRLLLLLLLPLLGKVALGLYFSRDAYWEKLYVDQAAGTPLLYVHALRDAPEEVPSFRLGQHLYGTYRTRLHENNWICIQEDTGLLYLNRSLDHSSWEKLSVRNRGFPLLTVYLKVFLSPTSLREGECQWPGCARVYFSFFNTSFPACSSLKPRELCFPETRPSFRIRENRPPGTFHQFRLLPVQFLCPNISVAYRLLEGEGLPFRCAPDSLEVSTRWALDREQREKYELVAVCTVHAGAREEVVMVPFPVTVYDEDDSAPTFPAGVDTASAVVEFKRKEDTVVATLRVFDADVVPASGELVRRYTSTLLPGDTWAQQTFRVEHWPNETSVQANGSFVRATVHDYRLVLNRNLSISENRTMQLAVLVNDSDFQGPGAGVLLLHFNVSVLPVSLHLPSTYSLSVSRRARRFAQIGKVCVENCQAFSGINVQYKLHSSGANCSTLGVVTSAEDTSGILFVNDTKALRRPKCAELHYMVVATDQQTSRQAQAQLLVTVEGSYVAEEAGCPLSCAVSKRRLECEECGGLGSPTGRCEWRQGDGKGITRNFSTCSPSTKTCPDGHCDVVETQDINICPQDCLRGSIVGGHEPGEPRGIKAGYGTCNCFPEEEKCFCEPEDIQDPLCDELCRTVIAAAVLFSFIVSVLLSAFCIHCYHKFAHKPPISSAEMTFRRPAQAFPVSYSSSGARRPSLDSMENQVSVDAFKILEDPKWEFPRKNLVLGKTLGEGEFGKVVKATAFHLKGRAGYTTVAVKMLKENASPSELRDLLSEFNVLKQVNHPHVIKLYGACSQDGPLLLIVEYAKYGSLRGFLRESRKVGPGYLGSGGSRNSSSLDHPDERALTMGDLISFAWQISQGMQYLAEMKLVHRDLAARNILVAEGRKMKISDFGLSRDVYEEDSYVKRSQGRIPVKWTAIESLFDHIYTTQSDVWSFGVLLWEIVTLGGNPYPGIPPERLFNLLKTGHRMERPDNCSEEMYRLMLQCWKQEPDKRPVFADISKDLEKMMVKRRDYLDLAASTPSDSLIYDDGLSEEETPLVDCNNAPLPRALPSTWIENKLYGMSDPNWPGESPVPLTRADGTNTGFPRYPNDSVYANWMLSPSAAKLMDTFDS
Chain of MUSK (human) (O15146 whole entry, looked up): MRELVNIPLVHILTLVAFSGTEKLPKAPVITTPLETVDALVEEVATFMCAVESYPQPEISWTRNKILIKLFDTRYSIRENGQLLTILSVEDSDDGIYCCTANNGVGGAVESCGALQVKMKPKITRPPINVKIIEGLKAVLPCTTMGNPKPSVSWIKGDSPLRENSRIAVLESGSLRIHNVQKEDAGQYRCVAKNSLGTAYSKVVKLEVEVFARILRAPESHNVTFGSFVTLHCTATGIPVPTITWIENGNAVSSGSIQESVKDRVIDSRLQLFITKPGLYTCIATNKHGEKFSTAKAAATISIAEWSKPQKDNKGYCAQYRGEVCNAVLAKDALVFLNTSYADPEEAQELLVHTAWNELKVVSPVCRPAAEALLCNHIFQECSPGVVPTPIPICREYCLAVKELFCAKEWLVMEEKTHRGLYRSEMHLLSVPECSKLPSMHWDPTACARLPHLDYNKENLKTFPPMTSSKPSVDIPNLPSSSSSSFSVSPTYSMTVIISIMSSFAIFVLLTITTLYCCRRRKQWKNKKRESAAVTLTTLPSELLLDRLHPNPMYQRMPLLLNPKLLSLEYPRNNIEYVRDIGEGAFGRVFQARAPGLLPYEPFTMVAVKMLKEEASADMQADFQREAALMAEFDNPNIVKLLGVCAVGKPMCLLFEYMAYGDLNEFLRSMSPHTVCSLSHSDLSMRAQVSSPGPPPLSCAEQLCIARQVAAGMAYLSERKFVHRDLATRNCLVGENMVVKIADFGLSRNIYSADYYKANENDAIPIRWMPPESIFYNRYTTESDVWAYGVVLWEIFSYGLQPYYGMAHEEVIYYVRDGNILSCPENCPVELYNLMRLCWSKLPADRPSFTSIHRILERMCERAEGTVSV
Chain of TXK (human) (P42681 whole entry, looked up): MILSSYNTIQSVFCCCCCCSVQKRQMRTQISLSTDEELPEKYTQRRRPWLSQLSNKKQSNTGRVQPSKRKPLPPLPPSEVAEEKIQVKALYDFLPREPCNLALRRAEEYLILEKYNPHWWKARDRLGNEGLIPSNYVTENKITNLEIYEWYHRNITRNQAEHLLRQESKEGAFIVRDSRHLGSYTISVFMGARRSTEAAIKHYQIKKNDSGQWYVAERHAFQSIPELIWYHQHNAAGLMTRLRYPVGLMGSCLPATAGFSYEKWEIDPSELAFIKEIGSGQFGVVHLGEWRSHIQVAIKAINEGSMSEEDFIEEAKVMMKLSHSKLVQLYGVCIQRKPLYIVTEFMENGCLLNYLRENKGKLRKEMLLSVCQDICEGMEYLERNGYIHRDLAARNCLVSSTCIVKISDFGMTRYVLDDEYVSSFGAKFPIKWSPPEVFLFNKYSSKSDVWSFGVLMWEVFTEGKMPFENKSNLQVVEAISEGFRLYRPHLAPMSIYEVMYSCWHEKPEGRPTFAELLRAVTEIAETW
Chain of SLK (human) (Q9H2G2 whole entry, looked up): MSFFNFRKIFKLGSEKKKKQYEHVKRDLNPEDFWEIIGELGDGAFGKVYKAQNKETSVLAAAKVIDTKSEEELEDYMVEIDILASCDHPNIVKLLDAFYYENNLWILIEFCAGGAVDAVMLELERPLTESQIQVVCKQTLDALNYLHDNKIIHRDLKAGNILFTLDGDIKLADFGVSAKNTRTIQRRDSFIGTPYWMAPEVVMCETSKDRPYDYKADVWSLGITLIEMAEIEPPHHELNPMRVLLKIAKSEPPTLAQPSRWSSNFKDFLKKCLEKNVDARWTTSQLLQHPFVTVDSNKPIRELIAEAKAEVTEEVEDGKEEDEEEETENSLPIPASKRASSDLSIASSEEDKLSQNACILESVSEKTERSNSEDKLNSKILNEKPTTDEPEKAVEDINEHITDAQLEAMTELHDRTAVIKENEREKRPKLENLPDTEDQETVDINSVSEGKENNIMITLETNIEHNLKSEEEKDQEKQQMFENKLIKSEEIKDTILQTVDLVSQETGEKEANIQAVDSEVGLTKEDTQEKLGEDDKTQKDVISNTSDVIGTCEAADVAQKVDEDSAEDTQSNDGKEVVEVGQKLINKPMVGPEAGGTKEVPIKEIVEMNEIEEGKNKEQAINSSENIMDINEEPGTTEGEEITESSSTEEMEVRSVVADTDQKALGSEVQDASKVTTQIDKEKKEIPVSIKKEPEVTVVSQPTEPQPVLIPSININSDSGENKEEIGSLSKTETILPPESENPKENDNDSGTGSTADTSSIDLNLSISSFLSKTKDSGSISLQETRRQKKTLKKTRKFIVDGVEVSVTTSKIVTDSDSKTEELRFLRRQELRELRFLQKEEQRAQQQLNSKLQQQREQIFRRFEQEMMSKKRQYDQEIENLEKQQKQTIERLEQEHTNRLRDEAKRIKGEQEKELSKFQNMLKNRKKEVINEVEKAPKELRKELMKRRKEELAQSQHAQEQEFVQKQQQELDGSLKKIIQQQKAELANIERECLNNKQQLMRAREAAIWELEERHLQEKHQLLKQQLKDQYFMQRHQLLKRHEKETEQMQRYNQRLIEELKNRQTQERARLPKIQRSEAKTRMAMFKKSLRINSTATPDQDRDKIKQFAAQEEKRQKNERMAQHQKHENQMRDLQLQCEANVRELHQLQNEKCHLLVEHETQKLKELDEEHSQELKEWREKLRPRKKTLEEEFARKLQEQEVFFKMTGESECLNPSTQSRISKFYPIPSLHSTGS

For CCN1CCN(Cc2ccc(NC(=O)c3ccc(C)c(/C=C/c4cnc(Nc5cc(N6CCNCC6)nc(C)n5)cn4)c3)cc2C(F)(F)F)CC1, the kinase still bound, per cent of control [1] was 76%, the kinase still bound, per cent of control [2] was 17% and the kinase still bound, per cent of control [3] was 43%. The kinase still bound, per cent of control [4] was 16%, the kinase still bound, per cent of control [5] was 4% and the kinase still bound, per cent of control [6] was 2.4%. The kinase still bound, per cent of control [7] was 100%, the kinase still bound, per cent of control [8] was 100% and the kinase still bound, per cent of control [9] was 23%. The kinase still bound, per cent of control [10] was 43%, the kinase still bound, per cent of control [11] was 35% and the kinase still bound, per cent of control [12] was 100%. For the same compound, the kinase still bound, per cent of control [13] was 0.75%, the kinase still bound, per cent of control [14] was 100% and the kinase still bound, per cent of control [15] was 26%. It also gave a kinase still bound, per cent of control [16] of 100%, a kinase still bound, per cent of control [17] of 0.2% and a kinase still bound, per cent of control [18] of 100%. It also gave a kinase still bound, per cent of control [19] of 86%, a kinase still bound, per cent of control [20] of 0% and a kinase still bound, per cent of control [21] of 100%. For the same compound, the kinase still bound, per cent of control [22] was 88%, the kinase still bound, per cent of control [23] was 0.05% and the kinase still bound, per cent of control [24] was 0.85%. The kinase still bound, per cent of control [25] was 0.2%, the kinase still bound, per cent of control [26] was 9.6% and the kinase still bound, per cent of control [27] was 100%. It also gave a kinase still bound, per cent of control [28] of 5.2%, a kinase still bound, per cent of control [29] of 100% and a kinase still bound, per cent of control [30] of 72%. The kinase still bound, per cent of control [31] was 15%, the kinase still bound, per cent of control [32] was 90% and the kinase still bound, per cent of control [33] was 100%. For the same compound, the kinase still bound, per cent of control [34] was 78%, the kinase still bound, per cent of control [35] was 100% and the kinase still bound, per cent of control [36] was 51%. It also gave a kinase still bound, per cent of control [37] of 100%, a kinase still bound, per cent of control [38] of 18% and a kinase still bound, per cent of control [39] of 36%. It also gave a kinase still bound, per cent of control [40] of 10%, a kinase still bound, per cent of control [41] of 0.45% and a kinase still bound, per cent of control [42] of 100%.
CCN1CCN(Cc2ccc(NC(=O)c3ccc(C)c(Oc4ccnc5[nH]ccc45)c3)cc2C(F)(F)F)CC1 was tested, and the kinase still bound, per cent of control [4] was 5.8%, the kinase still bound, per cent of control [5] was 12% and the kinase still bound, per cent of control [6] was 2%. For the same compound, the kinase still bound, per cent of control [17] was 0.1%, the kinase still bound, per cent of control [20] was 0% and the kinase still bound, per cent of control [22] was 0.4%. The kinase still bound, per cent of control [23] was 0%, the kinase still bound, per cent of control [24] was 15% and the kinase still bound, per cent of control [25] was 0%. It also gave a kinase still bound, per cent of control [26] of 23%, a kinase still bound, per cent of control [28] of 0.2% and a kinase still bound, per cent of control [39] of 13%. It also gave a kinase still bound, per cent of control [41] of 0.8%.
